{"source": "patent EP4592286A1", "about": "“MACROCYCLIC NITROGEN-CONTAINING CROWN ETHER COMPOUND AND USE THEREOF AS PROTEIN KINASE INHIBITOR” (Artivila Biopharma, priority 2022, dated 2024)", "assay_type_in_all_cases": "cell-based", "key": {"[1]": {"molecular_target": "T1, JAK2 (Mus musculus, UniProt Q62120)", "T1 construct": "endogenous in cells; host or cells: BAF3", "assay": "JAKs cell activity test: JAK2_pSTAT5 in IL-3-induced BAF3 cells", "conditions": "pSTAT5, IL-3-induced BAF3 cells", "procedure": "THP1 cells were collected by centrifugation, resuspended with 1×HBSS, counted and diluted to a certain cell density. They were inoculated in a 384-well plate and cultured in a saturated humidity incubator with 37 °C and 5% CO2. The compound (DMSO final volume of 0.3%) was added to THP1 cells (10 doses in duplicates) and cultured in a saturated humidity incubator with 37 °C and 5% CO2. hIL-4 was added to stimulate cells and cultured in a saturated humidity incubator with 37 °C and 5% CO2. The lysis solution was added and incubated at room temperature. According to the instructions of AlphaLISA SureFire Ultra p-STAT6 detection kit, the lysis solution was transferred to pSTAT6 detection system, and the ALPHA signal was read by PE Envision microplate reader. The inhibition rate Inh%=((DMSO-sample)/(DMSO-background))×100 was calculated. IC50 was obtained by fitting with GraphPad Prism non-linear regression equation, and y=Bottom+(Top-Bottom)/(1+10^((LogIC50-x)×hillslope)), where x was the concentration of the compound and y was the inhibition rate.\nJAK2_pSTAT5 was tesed in IL-3-induced BAF3 cells according to the above steps, and JAK3_pSTAT5 was tested in IL-2-induced CTLL-2 cells (without serum stimulation) according to the above steps."}, "[2]": {"molecular_target": "T2, wild-type LRRK2 (Homo sapiens, UniProt Q5S007)", "T2 construct": "pCMV-flag-WT LRRK2 (full-length); expressed in transfected cells; host or cells: HEK293T", "assay": "detection of phosphorylated S935 in HEK293T overexpressing wild-type LRRK2", "conditions": "pS935, HEK293T overexpressing wild-type LRRK2, 1.5 hours", "in_short": "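HEK293T cells transiently transfected with full-length FLAG-LRRK2 G2019S or wild-type LRRK2 for 20-24 h, then treated with compound (0.5% DMSO) for 1.5 h at 37°C. Cells PFA-fixed and immunostained for pS935 (1:1000) with DNA counterstain; fluorescence read on Odyssey imager.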"}, "[3]": {"tested_on": "A375 cells", "assay": "CDK9 cell activity test (Cell Titer-GLO cell growth inhibition), A375", "conditions": "Homo sapiens, A-375, 72 hours", "procedure": "(§1) In these experiments, the cell line MV-4-11 was cultured in IMDM culture solution (containing 100 U/mL penicillin and 0.1 g/L streptomycin), the cell line HCC1187 was cultured in RPMI-1640 culture solution (containing 100 U/mL penicillin and 0.1 g/L streptomycin) containing 10% fetal bovine serum, the cell line Mia Paca-2 was cultured in DMEM (containing 100 U/mL penicillin and 0.1 g/L streptomycin) containing 10% fetal bovine serum and 2.5% horse serum, and the cell line A375 was cultured in RPMI-1640 culture solution (containing 100 U/mL penicillin and 0.1 g/L streptomycin) containing 10% fetal bovine serum. All cells were cultured in a saturated humidity incubator with 37 °C and 5% CO2.\n(§2) When MV-4-11 cells, HCC-1187 cells, Mia Paca-2 cells and A375 cells grew to 80% -90% confleuncy, they were digested with trypsin, resuspended, counted and diluted to a certain cell density with complete medium, and inoculated into 96-well plate at 100 µL/well. […] The cells were lysed by mixing evenly for 2 minutes using a shaker, incubated at room temperature for 60 minutes to stabilize the chemiluminescence signal, and the chemiluminescence was read by PE EnVision microtiter plate reader. The cell growth inhibition rate Inh%=(DMSO well - compound treatment well)/(DMSO well - background well)×100 was calculated, and the cell growth IC50 value was obtained by fitting with GraphPad Prism 5 ."}, "[4]": {"tested_on": "HCC-1187 cells", "assay": "CDK9 cell activity test (Cell Titer-GLO cell growth inhibition), HCC1187", "conditions": "Homo sapiens, HCC1187, 72 h", "procedure": "as §1, §2"}, "[5]": {"tested_on": "MV-4-11 cells", "assay": "CDK9 cell activity test (Cell Titer-GLO cell growth inhibition), MV-4-11", "conditions": "Homo sapiens, MV4-11, 72 hours", "procedure": "as §1\nWhen MV-4-11 cells, HCC-1187 cells, Mia Paca-2 cells and A375 cells grew to 80% -90% confleuncy, they were digested with trypsin, resuspended, counted and diluted to a certain cell density with complete medium, and inoculated into 96-well plate at 100 µL/well. With complete medium as background control, they were cultured overnight in a saturated humidity incubator with 37°C and 5% CO2. The compound was diluted to 200-fold of the final concentration using DMSO, 3 µL of DMSO storage solution of the above compound was added to 197 µL of complete medium, 50 µL of compound diluted in medium was added to cells in each well, and cultivated in a saturated humidity incubator with 37°C and 5% CO2 for 72 hours. After 72 hours, the culture plate was placed at room temperature for equilibrium, and 40 µl of Cell Titer-GLO® reagent was added to each well. The cells were lysed by mixing evenly for 2 minutes using a shaker, incubated at room temperature for 60 minutes to stabilize the chemiluminescence signal, and the chemiluminescence was read by PE EnVision microtiter plate reader. The cell growth inhibition rate Inh%=(DMSO well - compound treatment well)/(DMSO well - background well)×100 was calculated, and the cell growth IC50 value was obtained by fitting with GraphPad Prism 5 ."}, "[6]": {"tested_on": "Mia Paca-2 cells", "assay": "CDK9 cell activity test (Cell Titer-GLO cell growth inhibition), Mia Paca-2", "conditions": "Homo sapiens, 72 hours", "procedure": "as §1, §2"}}}
{"compound": "CN1CCOCCOc2cc(Nc3nc(-c4cnn(C(CC#N)C5CCCC5)c4)c4cc[nH]c4n3)ccc2OCC1", "note": "(stereo not shown) [Example 26, 3-cyclopentyl-3-(4-(2-((7-methyl-2,3,6,7,8,9-hexahydro-5H-benzo[b][1,4,7]trioxa[10]azacyclododecan-13-yl)amino)-7H-pyrrolo[2,3-d]pytimidin-4-yl)-1H-pyrazol-1-yl)propionitrile]", "values": [{"measurement": "EC50", "setting": "[1]", "value": "500 to 5000", "unit": "nM"}]}
{"compound": "CCS(=O)(=O)N1CC(CC#N)(n2cc(-c3nc(Nc4ccc5c(c4)OCCN(C)CCO5)nc4[nH]ccc34)cn2)C1", "note": "[Example 28, 2-(1-(ethylsulfonyl)-3-(4-(2-((4-methyl-3,4,5,6-tetrahydro-2H-benzo[b][1,4,7]dioxazolin-9-yl)amino)-7H-pyrrolo[2,3-d]pytimidin-4-yl)-1H-pyrazol-1-yl)azetidin-3-yl) acetonitrile]", "values": [{"measurement": "EC50", "setting": "[2]", "value": "< 500", "unit": "nM"}]}
{"compound": "CN1CCOCCOc2cc(Nc3ncc(F)c(-c4ccc(C(=O)NCC#N)cc4)n3)ccc2OCC1", "note": "[Example 16, N-(cyanomethyl)-4-(5-fluoro-2-((7-methyl-2,3,6,7,8,9-hexahydro-5H-benzo[b][1,4,7]trioxa[10]azacyclododecan-13-yl)amino)pyrimidin-4-yl)benzamide]", "values": [{"measurement": "IC50", "setting": "[3]", "value": "100 to 1000", "unit": "nM"}, {"measurement": "IC50", "setting": "[4]; first HCC1187 column (c2)", "value": "1000 to 5000", "unit": "nM"}, {"measurement": "IC50", "setting": "[4]; second HCC1187 column (c3)", "value": "100 to 1000", "unit": "nM"}, {"measurement": "IC50", "setting": "[5]", "value": "< 100", "unit": "nM"}, {"measurement": "IC50", "setting": "[6]", "value": "100 to 1000", "unit": "nM"}]}
